Laboratory results reported in patent US20250195521A1 (Revolution Medicines, Inc., priority 2020, published 2025).
pEC50, pIC50: −log10 of the molar value. Where “and” joins values, the source holds several entries; their conditions need not be identical. Identical values can stand only once.

What was measured:
[1] = tested on: Capan-1 cells (K-Ras G12V); assay: CellTiter-Glo cell viability, Capan-1; assay type: cell-based, human; details: Homo sapiens, CAPAN-1, 120 h, K-Ras G12V, 5-day treatment; read-out: Capan-1 Cell Viability IC50
Method in brief: (§1)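 Cells seeded, compound dispensed straight into wells, 5-day exposure. Plates brought to room temperature ~30 min, CellTiter-Glo luminescence measured. Normalized to DMSO (%), 4-parameter logistic fit.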

[2] = target: KRAS G12C (Homo sapiens (Human), UniProt P01116+P62937, G12C); assay: Ras-Raf disruption/FRET/MOA assay (BRAF RBD, Cyclophilin A); assay type: biochemical; details: read-out: KRAS G12C FRET IC50
KRAS G12C, sequence (P01116-2 other isoform, or with tags, fused parts or gaps G12C): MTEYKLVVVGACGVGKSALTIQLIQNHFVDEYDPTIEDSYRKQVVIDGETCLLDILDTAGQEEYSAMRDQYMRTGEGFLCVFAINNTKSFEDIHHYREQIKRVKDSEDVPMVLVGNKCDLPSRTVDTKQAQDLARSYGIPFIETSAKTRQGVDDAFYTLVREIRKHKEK
KRAS G12C, sequence (P62937 whole entry): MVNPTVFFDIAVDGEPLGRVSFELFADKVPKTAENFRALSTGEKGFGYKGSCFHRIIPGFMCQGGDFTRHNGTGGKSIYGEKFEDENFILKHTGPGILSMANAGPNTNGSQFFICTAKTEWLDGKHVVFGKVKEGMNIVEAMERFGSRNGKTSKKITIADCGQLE
Method in brief: (§2)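 First, 25 μM Cyclophilin A, 12.5 nM His6-Ras-GMPPNP and 50 nM GST-BRAF RBD are mixed with diluted compound at pH 7.3. Next, 3 h at 25° C. Then 10 nM anti-His Eu-W1024 plus 50 nM anti-GST allophycocyanin for 1.5 h before TR-FRET reading.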

[3] = target: KRAS G12D (Homo sapiens (Human), UniProt P01116+P62937, G12D); assay: as above; assay type: biochemical; details: read-out: KRAS G12D FRET IC50
KRAS G12D, sequence (P01116 other isoform, or with tags, fused parts or gaps G12D): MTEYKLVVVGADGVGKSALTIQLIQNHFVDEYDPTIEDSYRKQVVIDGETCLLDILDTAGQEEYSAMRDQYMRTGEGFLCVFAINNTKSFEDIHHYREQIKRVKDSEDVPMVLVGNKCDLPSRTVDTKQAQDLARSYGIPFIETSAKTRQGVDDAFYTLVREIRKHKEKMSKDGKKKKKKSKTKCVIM
KRAS G12D, sequence (P62937 whole entry): as the sequence (P62937 whole entry) above
Method in brief: as §2

[4] = target: KRAS G12S (Homo sapiens (Human), UniProt P01116+P62937, G12S); assay: as above; assay type: biochemical; details: read-out: KRAS G12S FRET IC50
KRAS G12S, sequence (P01116 other isoform, or with tags, fused parts or gaps G12S): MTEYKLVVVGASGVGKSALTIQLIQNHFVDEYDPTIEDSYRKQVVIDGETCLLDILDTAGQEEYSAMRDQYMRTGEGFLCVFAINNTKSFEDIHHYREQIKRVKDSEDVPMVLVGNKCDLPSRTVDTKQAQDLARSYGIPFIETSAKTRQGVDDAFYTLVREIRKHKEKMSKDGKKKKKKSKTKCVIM
KRAS G12S, sequence (P62937 whole entry): as the sequence (P62937 whole entry) above
Method in brief: as §2

[5] = target: KRAS G12V (Homo sapiens (Human), UniProt P01116+P62937, G12V); assay: as above; assay type: biochemical; details: read-out: KRAS G12V FRET IC50
KRAS G12V, sequence (P01116 other isoform, or with tags, fused parts or gaps G12V): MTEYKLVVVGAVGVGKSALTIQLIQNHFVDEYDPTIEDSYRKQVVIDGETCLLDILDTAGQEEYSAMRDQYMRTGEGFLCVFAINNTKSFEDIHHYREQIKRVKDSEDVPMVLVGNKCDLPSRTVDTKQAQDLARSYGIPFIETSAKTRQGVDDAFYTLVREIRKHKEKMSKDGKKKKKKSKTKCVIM
KRAS G12V, sequence (P62937 whole entry): as the sequence (P62937 whole entry) above
Method in brief: as §2

[6] = target: KRAS G13C (Homo sapiens (Human), UniProt P01116+P62937, G13C); assay: as above; assay type: biochemical; details: read-out: KRAS G13C FRET IC50
KRAS G13C, sequence (P01116 other isoform, or with tags, fused parts or gaps G13C): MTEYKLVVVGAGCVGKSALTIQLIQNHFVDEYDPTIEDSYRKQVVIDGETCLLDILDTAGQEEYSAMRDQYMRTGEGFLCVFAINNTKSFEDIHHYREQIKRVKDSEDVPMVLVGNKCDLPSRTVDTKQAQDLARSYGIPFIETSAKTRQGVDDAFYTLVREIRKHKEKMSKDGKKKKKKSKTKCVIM
KRAS G13C, sequence (P62937 whole entry): as the sequence (P62937 whole entry) above
Method in brief: as §2

[7] = target: KRAS G13D (Homo sapiens (Human), UniProt P01116+P62937, G13D); assay: as above; assay type: biochemical; details: read-out: KRAS G13D FRET data IC50
KRAS G13D, sequence (P01116 other isoform, or with tags, fused parts or gaps G13D): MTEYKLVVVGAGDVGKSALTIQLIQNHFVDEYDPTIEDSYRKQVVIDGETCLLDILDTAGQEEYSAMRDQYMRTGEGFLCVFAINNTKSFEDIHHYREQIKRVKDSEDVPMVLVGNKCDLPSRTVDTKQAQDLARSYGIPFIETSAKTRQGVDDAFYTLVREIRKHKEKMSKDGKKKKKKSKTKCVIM
KRAS G13D, sequence (P62937 whole entry): as the sequence (P62937 whole entry) above
Method in brief: as §2

[8] = target: KRAS Q61H (Homo sapiens (Human), UniProt P01116+P62937, Q61H); assay: as above; assay type: biochemical
KRAS Q61H, sequence (P01116 other isoform, or with tags, fused parts or gaps Q61H): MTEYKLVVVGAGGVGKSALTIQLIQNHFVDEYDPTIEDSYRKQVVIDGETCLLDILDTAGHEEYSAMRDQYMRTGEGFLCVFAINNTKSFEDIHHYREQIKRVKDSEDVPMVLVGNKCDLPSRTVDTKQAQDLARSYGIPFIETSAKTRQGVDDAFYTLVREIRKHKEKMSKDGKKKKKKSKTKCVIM
KRAS Q61H, sequence (P62937 whole entry): as the sequence (P62937 whole entry) above
Method in brief: as §2

[9] = target: KRAS WT (Homo sapiens (Human), UniProt P01116+P62937); assay: as above; assay type: biochemical; details: read-out: KRAS WT FRET data IC50
KRAS WT, sequence (P01116 other isoform, or with tags, fused parts or gaps): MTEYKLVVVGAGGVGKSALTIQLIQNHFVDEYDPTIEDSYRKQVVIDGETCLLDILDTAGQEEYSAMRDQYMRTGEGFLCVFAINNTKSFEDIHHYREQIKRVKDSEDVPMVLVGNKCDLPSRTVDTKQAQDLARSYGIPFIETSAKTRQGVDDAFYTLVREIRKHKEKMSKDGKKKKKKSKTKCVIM
KRAS WT, sequence (P62937 whole entry): as the sequence (P62937 whole entry) above
Method in brief: as §2

[10] = target: NRAS G12C (Homo sapiens (Human), UniProt P01111+P62937, G12C); assay: as above; assay type: biochemical; details: read-out: NRAS G12C FRET data IC50
NRAS G12C, sequence (P01111 whole entry G12C): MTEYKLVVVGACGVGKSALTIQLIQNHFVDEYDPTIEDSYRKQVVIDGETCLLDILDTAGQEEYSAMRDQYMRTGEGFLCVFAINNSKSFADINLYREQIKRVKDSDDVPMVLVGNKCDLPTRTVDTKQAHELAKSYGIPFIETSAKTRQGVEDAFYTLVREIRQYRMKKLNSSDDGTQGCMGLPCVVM
NRAS G12C, sequence (P62937 whole entry): as the sequence (P62937 whole entry) above
Method in brief: as §2

[11] = target: NRAS Q61K (Homo sapiens (Human), UniProt P01111+P62937, Q61K); assay: as above; assay type: biochemical
NRAS Q61K, sequence (P01111 whole entry Q61K): as the sequence (P01111 whole entry G12C) above, with C12G, Q61K counted along it
NRAS Q61K, sequence (P62937 whole entry): as the sequence (P62937 whole entry) above
Method in brief: as §2

[12] = target: NRAS Q61R (Homo sapiens (Human), UniProt P01111+P62937, Q61R); assay: as above; assay type: biochemical
NRAS Q61R, sequence (P01111 whole entry Q61R): as the sequence (P01111 whole entry G12C) above, with C12G, Q61R counted along it
NRAS Q61R, sequence (P62937 whole entry): as the sequence (P62937 whole entry) above
Method in brief: as §2

[13] = target: NRAS WT (Homo sapiens (Human), UniProt P01111+P62937); assay: as above; assay type: biochemical
NRAS WT, sequence (P01111 whole entry): as the sequence (P01111 whole entry G12C) above, with C12G counted along it
NRAS WT, sequence (P62937 whole entry): as the sequence (P62937 whole entry) above
Method in brief: as §2

[14] = tested on: K-Ras G12C (NCI-H358 cells); assay: Potency assay: pERK in NCI-H358 cells; assay type: cell-based, human; details: Homo sapiens; NCI-H358 cells, 4 hours; read-out: pERK EC50 (H358 KRAS G12C)
Method in brief: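 Cells plated the day before were exposed for 4 h at 37° C, 5% CO2 to a 10-point, 3-fold DMSO dilution series (10 mM top stock), in duplicate. Phospho-ERK was read by AlphaLISA SureFire Ultra or by In-Cell Western with DRAQ5 DNA stain, and IC50 came from a 4-parameter sigmoidal fit.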

[15] = tested on: NCI-H358 (K-Ras G12C); assay: CellTiter-Glo cell viability assay, NCI-H358; assay type: cell-based, human; details: Homo sapiens, NCI-H358, 120 h, 5-day treatment; read-out: H358 Cell Viability assay data (K-Ras G12C, IC50)
Method in brief: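 Cells seeded, compound added directly to plates; day 5: plates to RT ~30 min, CellTiter-Glo luminescence; (sample/avg DMSO)*100; 4-parameter fit.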

[16] = target: K-Ras G12C(GMP-PNP) binding to BRAF RBD (Homo sapiens (Human), UniProt P01116+P62937, G12C); assay: Disruption of BRAF RBD interaction with K-Ras (FRET / MOA assay), K-Ras G12C; assay type: biochemical; details: read-out: KRAS G12C FRET IC50
K-Ras G12C(GMP-PNP) binding to BRAF RBD, sequence (P01116 other isoform, or with tags, fused parts or gaps G12C): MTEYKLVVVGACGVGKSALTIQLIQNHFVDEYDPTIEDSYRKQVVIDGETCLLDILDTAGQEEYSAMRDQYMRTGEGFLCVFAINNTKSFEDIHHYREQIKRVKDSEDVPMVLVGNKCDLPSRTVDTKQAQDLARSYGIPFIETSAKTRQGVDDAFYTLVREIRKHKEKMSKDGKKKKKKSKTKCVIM
K-Ras G12C(GMP-PNP) binding to BRAF RBD, sequence (P62937 whole entry, canonical isoform): as the sequence (P62937 whole entry) above
Method in brief: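 Incubation of compound (up to 30 μM final, 3-fold steps) with GMP-PNP-type loaded Ras isoform, cyclophilin A and BRAF RBD ran 3 h at 25° C, followed by 1.5 h with detection antibodies. Disruption appears as a reduced TR-FRET ratio compared with DMSO controls, expressed as IC50.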

[17] = tested on: NCI-H358 cells (K-Ras G12C); assay: CellTiter-Glo cell viability, NCI-H358; assay type: cell-based, human; details: Homo sapiens, NCI-H358, 120 h, K-Ras G12C, 5-day treatment; read-out: H358 Cell Viability IC50
Method in brief: as §1

Row | Compound | pIC50 [1] | pIC50 [2] | pIC50 [3] | pIC50 [4] | pIC50 [5] | pIC50 [6] | pIC50 [7] | pIC50 [8] | pIC50 [9] | pIC50 [10] | pIC50 [11] | pIC50 [12] | pIC50 [13] | pEC50 [14] | pIC50 [15] | pIC50 [16] | pIC50 [17]
1 | CCn1c(-c2cccnc2[C@H](C)OC)c2c3cc(ccc31)-c1cc(O)cc(c1)C[C@H](NC(=O)[C@@H]1CCCCCN1C(C)=O)C(=O)N1CCC[C@H](N1)C(=O)OCC(C)(C)C2 [Compound A176] | 5.00 to 6.00 | 6.00 to 7.00 | 5.00 to 6.00 | 5.00 to 6.00 | 6.00 to 7.00 | 6.00 to 7.00 | 6.00 to 7.00 | 6.00 to 7.00 | 6.00 to 7.00 | 6.00 to 7.00 | 6.00 to 7.00 | 5.00 to 6.00 | 6.00 to 7.00 | > 5.30 |  |  | 
2 | CCn1c(-c2cccnc2[C@H](C)OC)c2c3cc(ccc31)-c1cc(O)cc(c1)C[C@H](NC(=O)CC(C)c1ccncc1)C(=O)N1CCC[C@H](N1)C(=O)OCC(C)(C)C2 (stereo partly drawn) [Compound A178] | < 5.00 | 6.00 to 7.00 and 5.00 to 6.00 | 5.00 to 6.00 and < 5.00 | 5.00 to 6.00 | 5.00 to 6.00 | 6.00 to 7.00 | 5.00 to 6.00 | 6.00 to 7.00 | 6.00 to 7.00 and 5.00 to 6.00 | 5.00 to 6.00 | 5.00 to 6.00 | 5.00 to 6.00 and < 5.00 | 6.00 to 7.00 and 5.00 to 6.00 |  |  |  | 
3 | CCn1c(-c2cccnc2[C@H](C)OC)c2c3cc(ccc31)-c1cc(O)cc(c1)C[C@H](NC(=O)[C@@H]1[C@@H](C)CCN1C(C)=O)C(=O)N1CCC[C@H](N1)C(=O)OCC(C)(C)C2 [Compound A208] | < 5.00 | 6.00 to 7.00 | 5.00 to 6.00 | 5.00 to 6.00 | 5.00 to 6.00 | 6.00 to 7.00 | 5.00 to 6.00 | 6.00 to 7.00 | 6.00 to 7.00 | 5.00 to 6.00 | 6.00 to 7.00 | 5.00 to 6.00 | 6.00 to 7.00 |  |  |  | 
4 | CCn1c(-c2cccnc2[C@H](C)OC)c2c3cc(ccc31)-c1cc(O)cc(c1)C[C@H](NC(=O)[C@H](C(C)C)N(C)C(=O)C1CCC(=O)N1C)C(=O)N1CCC[C@H](N1)C(=O)OCC(C)(C)C2 (stereo partly drawn) [Compound A230] | 5.00 to 6.00 | 7.00 to 8.00 | 6.00 to 7.00 | 7.00 to 8.00 | 7.00 to 8.00 | 7.00 to 8.00 | 6.00 to 7.00 | 7.00 to 8.00 | 7.00 to 8.00 | 7.00 to 8.00 | 6.00 to 7.00 | 6.00 to 7.00 | 7.00 to 8.00 |  |  |  | 
5 | CCn1c(-c2cccnc2[C@H](C)OC)c2c3cc(ccc31)-c1csc(n1)C[C@H](NC(=O)N1CCN(C)CC1)C(=O)N1CCC[C@H](N1)C(=O)OCC(C)(C)C2 [Compound A265, N-((6^3S,4S,Z)-1^1-ethyl-1^2-(2-((S)-1-methoxyethyl)pyridin-3-yl)-10, 10-dimethyl-5,7-dioxo-6^1,6^2,6^3,6^4,6^5,6^6-hexahydro-1^1H-8-oxa-2 (4,2)-thiazola-1 (5,3)-indola-6 (1,3)-pyridazinacycloundecaphane-4-yl)-4-methylpiperazine-1-carboxamide] | 5.00 to 6.00 | 7.00 to 8.00 | 6.00 to 7.00 | 6.00 to 7.00 | 7.00 to 8.00 | 6.00 to 7.00 | 6.00 to 7.00 | 6.00 to 7.00 | 6.00 to 7.00 | 7.00 to 8.00 | 6.00 to 7.00 | 6.00 to 7.00 | 6.00 to 7.00 |  |  |  | 
6 | CCn1c(-c2cccnc2[C@H](C)OC)c2c3cc(ccc31)-c1csc(n1)C[C@H](NC(=O)[C@H](C(C)C)N(C)C(=O)N1[C@H](C)CN(C)C[C@@H]1C)C(=O)N1CCC[C@H](N1)C(=O)OCC(C)(C)C2 [Compound A272] | 5.00 to 6.00 | 5.00 to 6.00 | 5.00 to 6.00 | 5.00 to 6.00 | < 5.00 | 5.00 to 6.00 | 5.00 to 6.00 | 6.00 to 7.00 | 5.00 to 6.00 | 5.00 to 6.00 | 5.00 to 6.00 | 5.00 to 6.00 | 5.00 to 6.00 |  |  |  | 
7 | CCn1c(-c2cccnc2[C@H](C)OC)c2c3cc(ccc31)-c1csc(n1)C[C@H](NC(=O)[C@H](C(C)C)N(C)C(=O)N1C[C@@H]3[C@@H](C1)OCCN3C)C(=O)N1CCC[C@H](N1)C(=O)OCC(C)(C)C2 [Compound A472] | 7.00 to 8.00 | 6.00 to 7.00 | 5.00 to 6.00 | 6.00 to 7.00 | 6.00 to 7.00 | 6.00 to 7.00 | 5.00 to 6.00 | 6.00 to 7.00 | 6.00 to 7.00 | 6.00 to 7.00 | 6.00 to 7.00 | 6.00 to 7.00 | 6.00 to 7.00 |  |  |  | 
8 | CCn1c(-c2cccnc2[C@H](C)OC)c2c3cc(ccc31)-c1csc(n1)C[C@H](NC(=O)[C@H](C(C)C)N(C)C(=O)N1C[C@@H]3CCN(C)C[C@@H]31)C(=O)N1CCC[C@H](N1)C(=O)OCC(C)(C)C2 [Compound A516] | 6.00 to 7.00 | 5.00 to 6.00 | 5.00 to 6.00 | 5.00 to 6.00 | 5.00 to 6.00 | 5.00 to 6.00 | 5.00 to 6.00 |  | 5.00 to 6.00 | 5.00 to 6.00 | 5.00 to 6.00 | 5.00 to 6.00 | 5.00 to 6.00 |  | < 5.00 | 5.00 to 6.00 | 
9 | CCn1c(-c2cccnc2[C@H](C)OC)c2c3cc(ccc31)-c1csc(n1)C[C@H](NC(=O)[C@H](C(C)C)N(C)C(=O)N1C[C@H]3CCN(C)C[C@H]31)C(=O)N1CCC[C@H](N1)C(=O)OCC(C)(C)C2 [Compound A517] | 6.00 to 7.00 | 5.00 to 6.00 | 5.00 to 6.00 | 5.00 to 6.00 | 5.00 to 6.00 | 5.00 to 6.00 | 5.00 to 6.00 |  | 5.00 to 6.00 | 5.00 to 6.00 | 5.00 to 6.00 | 5.00 to 6.00 | 5.00 to 6.00 | > 5.30 |  |  | 5.00 to 6.00
10 | CCn1c(-c2cccnc2[C@H](C)OC)c2c3nc(ccc31)-c1csc(n1)C[C@H](NC(=O)[C@H](C(C)C)N(C)C(=O)N1CC(OC)C1)C(=O)N1CCC[C@H](N1)C(=O)OCC(C)(C)C2 [Compound A613, N-((2S)-1-(((6^3S,4S,Z)-1^1-ethyl-1^2-(2-((S)-1-methoxyethyl)pyridin-3-yl)-10,10-dimethyl-5,7-dioxo-6^1,6^2,6^3,6^4,6^5,6^6-hexahydro-1^1H-8-oxa-2 (4,2)-thiazola-1 (5,3)-pyrrolo [3,2-b]pyridina-6 (1,3)-pyridazinacycloundecaphane-4-yl)amino)-3-methyl-1-oxobutan-2-yl)-3-methoxy-N-methylazetidine-1-carboxamide] | 6.00 to 7.00 | 5.00 to 6.00 | 5.00 to 6.00 | 5.00 to 6.00 | 5.00 to 6.00 | 5.00 to 6.00 | 5.00 to 6.00 |  | 5.00 to 6.00 | 5.00 to 6.00 | 6.00 to 7.00 | 5.00 to 6.00 | 5.00 to 6.00 |  | 7.00 to 8.00 | 6.00 to 7.00 | 6.00 to 7.00
